Measured values as given in patent US11612651B2, “Steroid acid-based immunogen enhancers” (priority 2021, dated 2023).
No end group written: not given here. *: point of attachment. Cholyl = C[C@H](CCC(=O)*)[C@H]1CC[C@H]2[C@@H]3[C@H](O)C[C@@H]4C[C@H](O)CC[C@]4(C)[C@H]3C[C@H](O)[C@]12C

Legend:
GII.3 human norovirus = settings: host intestinal cells; free bile acids; cited from earlier work
B3Z cells [1] = experiment: Antigen-presentation assay using the B3Z reporter system, BMDCs as antigen presenting cells; assay type: cell-based, mouse; settings: for antigen-presentation activity of cholic acid-NLS peptide conjugate (B3Z response OD570): BMDCs as antigen presenting cells, mixed with OVA at best conjugate:antigen ratio, FIGS. 3-5; for antigen cross-presentation (B3Z response) compared with OVA alone: BMDCs, molar ratio (bile acid/peptide/conjugate):antigen 4:1, mixed with OVA, FIG. 2
Source text: For this experiment, BMDCs were used as the antigen presenting cells (n=6) and the molar ratio (bile acid/peptide/conjugate): antigen was 4:1. Controls tested included no antigen (“PBS”), antigen alone (“OVA alone”), unconjugated NLS peptide (“SV40NLS”), unconjugated cholic acid mixed with OVA (“CA”), and the positive control peptide SIINFEKL (SEQ ID NO: 9) mixed with OVA (“SIINFEKL”). The dashed line represents the signal obtained with OVA alone. Bile acids: cholic acid (CA); glycodeoxycholic acid (GDCA); glycochenodeoxycholic acid (GCDCA); ursodeoxycholic acid (UDCA); and lithocholic acid (LCA).
The dashed line represents the signal obtained with OVA alone. The readout was taken after 24 h of incubation and error bars represent SD (n=6). For this experiment, BMDCs were used as the antigen presenting cells.
The dashed line represents the signal obtained with OVA alone. Readout was taken after 24 h of incubation from a single experiment. The molar ratio of CA-peptide conjugate: OVA was 22:1. For this experiment, BMDCs were used as the antigen presenting cells.
For this experiment, BMDCs were used as the antigen presenting cells. The dashed line represents the signal obtained with OVA alone. Readout was taken after 24 h of incubation from a single experiment. The molar ratio of CA-peptide conjugate: OVA was as follows: CA-GWG-SV40NLS (12:1); CA-hnRNP M NLS (12:1); CA-NLS2-RPS17 NLS (22:1); CA-HuR NLS (22:1); CA-cMyc NLS (2:1); CA-NLS3-RPS17 NLS (22:1); CA-NLS2-RG-RPS17 NLS (2:1); CA-PQBP1 NLS (8:1); CA-hnRNPA1 M9 NLS (22:1); and CA-SV40 NLS (2:1).
(§1) Various bile acid-NLS conjugates were screened using the B3Z reporter system. The B3Z cell line is a T-cell hybridoma specific for the H2-K^b-SIINFEKL complex. Once activated via its TCR, the LacZ reporter gene (under the NFAT promoter control) is expressed. Briefly, 1.5×10^5 BMDCs or 2.5×10^5 MSCs were co-cultured with 5×10^4 B3Z cells treated with the mixing conditions of ovalbumin (OVA) and bile acid-NLS conjugates for overnight at 37° C. with 5% CO2. The following day, all cells were washed twice with PBS (pH 7.4), and the cell pellets were lysed by adding 100 μL of a lysis buffer containing 0.15 mM chlorophenol red-beta-D-galactopyranoside (CPRG) substrate (Calbiochem, La Jolla, Calif.), 0.125% NP40 (EMD Sciences, La Jolla, Calif.), 9 mM MgCl2 (Aldrich, USA) and 100 mM 2-mercaptoethanol in PBS. After a 5- or 24-h incubation at 37° C., absorbance was taken at 570 nm with 636 nm as the reference wavelength. For these experiments, OVA was re-suspended in PBS (pH 7.3) at 5-10 mg/mL. The different bile acid-NLS conjugates were re-suspended in H2O at 10 mg/mL. Bile acid-NLS conjugate: antigen mixtures were prepared at different molar ratios according to Table 2.
Variants of CA-SV40NLS were synthesized in order to explore structure-activity relationships relating to the antigen cross-presentation enhancing activity observed for this conjugate. More particularly, conjugates having different bile acids conjugated to the SV40NLS peptide (SEQ ID NO: 1) were synthesized and their effect on antigen presentation was evaluated by using the B3Z reporter system with the OVA antigen as described in Example 1. […] In FIG. 2, no increase in antigen cross-presentation over the antigen alone (“OVA”) was observed when OVA was mixed with either unconjugated cholic acid (“CA”) or SV40NLS peptide (“SV40NLS”), although lower sensitivity of the B3Z reporter system as compared to the OT-I CD8 T cell-based assay used in FIG. 1 may have been a factor.
(§2) Further variants of CA-SV40NLS were synthesized in which the SV40NLS peptide was replaced with peptides comprising other NLS's (Table 3) and the antigen presentation activities of the CA-NLS peptide conjugates were evaluated using the B3Z reporter system as described in Example 1. The following conjugate:antigen molar ratios were tested for each conjugate: 2:1, 4:1, 8:1, 12:1 and 22:1. […]

B3Z cells [2] = experiment: Antigen-presentation assay using the B3Z reporter system, cross-presenting MSC line as antigen presenting cells; assay type: cell-based; settings: compared to OVA alone or OVA mixed with CA-SV40NLS, FIG. 6
Procedure: For this experiment, a cross-presentation mesenchymal stromal cell (MSC) line was used as the antigen presenting cells. The dashed line represents the signal obtained with OVA alone. Readout was taken after 24 h of incubation. The molar ratio of CA-peptide conjugate: OVA was as follows: CA-GWG-SV40NLS (2:1); CA-hnRNP M NLS (8:1); CA-hnRNP D NLS (12:1); CA-NLS2-RG-RPS17 (4:1); CA-cMyc NLS (12:1); CA-HuR NLS (12:1); CA-Tus NLS (2:1); CA-NLS2-RPS17 NLS (4:1); CA-PQBP1 NLS (12:1); CA-hnRNPA1 M9 NLS (2:1); and CA-SV40 NLS (2:1).
as §1, §2

[3] = system: cross-presenting mesenchymal stromal cell (MSC) line; experiment: Antigen internalization: MSC line pulsed with OVA labelled with Alexa Fluor 647, flow cytometry; assay type: cell-based; settings: various conjugate:OVA molar ratios, FIGS. 7A-7D
Procedure: FIGS. 7A to 7D show the effect of different NLS peptides on the antigen internalization activity of cholic acid-NLS peptide conjugates. For this experiment, a cross-presenting mesenchymal stromal cell (MSC) line was used as the antigen presenting cells, which were pulsed with OVA labelled with Alexa Fluor 647 (i.e., OVA^647)™. OVA^647 fluorescence was measured by flow cytometry. Different ratios of CA (NLS1 RPS17 [FIG. 7A]; NLS3 RPS17 [FIG. 7B]; PQBP-1 [FIG. 7C]; and hnRNPA1 M9 NLS [FIG. 7D]) to antigen (CA:OVA=22:1, 12:1, 8:1, 4:1, and 2:1) were tested (hnRNPA1 M9 NLS at 2:1).
(§3) To further dissect the effect of bile acid peptide conjugates on antigen presentation, antigen internalization and processing were evaluated. MSC cell lines were pulsed with OVA-labelled with AF647 in the presence of various molar ratios of different bile acid peptide conjugates, NLS1-RPS17 [FIG. 7A]; NLS3 RPS17 [FIG. 7B]; PQBP-1 [FIG. 7C]; and hnRNPA1 M9 NLS [FIG. 7D]) and fluorescence was assessed by flow cytometry. […] OVA processing was assessed by pulsing MSC cell lines with DQ™-Ovalbumin (OVA-DQ) in the presence of the same bile acid peptide conjugates as in FIGS. 7A to 7D.

[4] = system: cross-presenting mesenchymal stromal cell (MSC) line; experiment: Antigen processing: MSC line pulsed with DQ Ovalbumin (OVA-DQ), flow cytometry; assay type: cell-based; settings: various conjugate:OVA molar ratios, FIGS. 8A-8D
Procedure: FIGS. 8A to 8D show the effect of different NLS peptides on the antigen processing activity of cholic acid-NLS peptide conjugates. For this experiment, a cross-presenting mesenchymal stromal cell (MSC) line was used as the antigen presenting cells, which were pulsed with DQ™ Ovalbumin (i.e., OVA^DQ). OVA^DQ fluorescence was measured by flow cytometry. Different ratios of CA (NLS1 RSP17 [FIG. 8A]; NLS3 RPS17 [FIG. 8B]; PQBP-1 [FIG. 8C]; and hnRNPA1 M9 NLS [FIG. 8D]) to antigen (CA:OVA=22:1, 12:1, 8:1, 4:1, and 2:1) were tested (hnRNPA1 M9 NLS at 2:1).
as §3

Compound	antigen-presentation activity of cholic acid-NLS peptide conjugate (B3Z response OD570) (B3Z cells [1])	OVA internalization (OVA-AF647 fluorescence) [3]	OVA processing (OVA-DQ fluorescence) [4]	further results
C[C@H](CCC(=O)NCC(=O)O)[C@H]1CC[C@H]2[C@@H]3[C@H](O)C[C@@H]4C[C@H](O)CC[C@]4(C)[C@H]3C[C@H](O)[C@]12C [GCA, glycocholic acid]	–	–	–	effect on GII.3 human norovirus infection and replication (GII.3 human norovirus): increase GII.3 human norovirus infection and replication
C[C@H](CCC(=O)NCC(=O)O)[C@H]1CC[C@H]2[C@@H]3[C@@H](O)C[C@@H]4C[C@H](O)CC[C@]4(C)[C@H]3CC[C@]12C [GUDCA, glycoursodeoxycholic acid]	–	–	–	immunogen enhancer activity (B3Z reporter system) (B3Z cells [1]; GUDCA:OVA molar ratios 2:1, 4:1, 8:1, 12:1 and 22:1): observed at all GUDCA:OVA molar ratios tested; increase in B3Z response (OD570) over the OVA alone (B3Z cells [1]; unconjugated GUDCA mixed with OVA, 22:1, data not shown): ≤ 30%
C[C@H](CCC(=O)NCCS(=O)(=O)O)[C@H]1CC[C@H]2[C@@H]3[C@H](O)C[C@@H]4C[C@H](O)CC[C@]4(C)[C@H]3C[C@H](O)[C@]12C [TCA, taurocholic acid]	–	–	–	effect on GII.3 human norovirus infection and replication (GII.3 human norovirus): increase GII.3 human norovirus infection and replication
CA-GWG-SV40NLS: cholic acid conjugated to peptide CGWWGYGPKKKRKVGGWWG (SEQ ID NO: 3) (also: cholic acid conjugate, site not given here)	higher antigen-presentation activity than SV40NLS	–	–	antigen-presentation activity of cholic acid-NLS peptide conjugate (B3Z response OD570) (B3Z cells [2]): strikingly high antigen-presentation activity
CA-HuR NLS: cholic acid conjugated to peptide CGRFSPMGVDHMSGLSGVNVPG (SEQ ID NO: 13) (also: cholic acid conjugate, site not given here)	high antigen presentation activity	–	–	antigen-presentation activity of cholic acid-NLS peptide conjugate (B3Z response OD570) (B3Z cells [2]): strikingly high antigen-presentation activity
CA-NLS2-RG-RPS17 NLS: cholic acid conjugated to NLS2-RG Domain RPS17 peptide (SEQ ID NO: 11) (CNKRVCEEIAIIPSKKLRNKGSGRIQRGPVRGIS; cysteine pairing not given here; also: cholic acid conjugate, site not given here)	high antigen presentation activity	–	–	–
CA-NLS3-RPS17 NLS: cholic acid conjugated to peptide SKKLRNKIAGYVTHLMKRI (SEQ ID NO: 8) (also: cholic acid conjugate, site not given here)	high antigen presentation activity	enhance OVA internalization	enhance OVA processing	–
CA-PQBP1 NLS: cholic acid conjugated to peptide CADREEGKERRHHRREELAPY (SEQ ID NO: 6) (also: cholic acid conjugate, site not given here)	strikingly high antigen-presentation activity	enhance OVA internalization	enhance OVA processing	antigen-presentation activity of cholic acid-NLS peptide conjugate (B3Z response OD570) (B3Z cells [2]): strikingly high antigen-presentation activity
CA-SV40NLS: cholic acid conjugated to the N-terminal cysteine amino group of 13-mer peptide CGYGPKKKRKVGG (SEQ ID NO: 1) (Cholyl-CGYGPKKKRKVGG)	–	–	–	antigen cross-presentation (B3Z response) compared with OVA alone (B3Z cells [1]): increased antigen cross-presentation
CA-cMyc NLS: cholic acid conjugated to peptide CGYGPAAKRVKLDGG (SEQ ID NO: 12) (also: cholic acid conjugate, site not given here)	high antigen presentation activity	–	–	–
CA-hnRNPA1 M9 NLS: cholic acid conjugated to peptide CSNFGPMKGGNFGGRSSGPY (SEQ ID NO: 4) (also: cholic acid conjugate, site not given here)	–	enhance OVA internalization	enhance OVA processing	–
NLS1-RPS17: cholic acid conjugated to peptide CMGRVRTKTVKKAAGG (SEQ ID NO: 15) (also: cholic acid conjugate, site not given here)	–	enhance OVA internalization	enhance OVA processing	–
SV40NLS: unconjugated NLS peptide CGYGPKKKRKVGG (SEQ ID NO: 1) (SV40NLS) [reference compound]	–	–	–	antigen cross-presentation (B3Z response) compared with OVA alone (B3Z cells [1]): no increase
